Results: article PMC12186257, “Serendipitous and Systematic Chemoproteomic Discovery of MBLAC2, HINT1, and NME1‑4 Inhibitors from Histone Deacetylase-Targeting Pharmacophores” (ACS Chemical Biology, 2025)

Tests used:
MBLAC2 = biological target: T1, MBLAC2 (Homo sapiens, UniProt Q68D91); experiment: chemoproteomic competition assay (MV4-11/SW620 lysate, iA/iC/iQ beads, MS readout); type: binding; details: for MBLAC2 binding / Kd: nine-dose competition assay; for EC50: focused library profiling; for Kd: read-out: KDapp MBLAC2
T1 construct: incubated at increasing concentrations with a mixture of lysates of MV4–11 and SW620 cells; endogenous in cells; host or cells: mixed lysate of MV4-11 and SW620 cells
T1 sequence (Q68D91 1-279): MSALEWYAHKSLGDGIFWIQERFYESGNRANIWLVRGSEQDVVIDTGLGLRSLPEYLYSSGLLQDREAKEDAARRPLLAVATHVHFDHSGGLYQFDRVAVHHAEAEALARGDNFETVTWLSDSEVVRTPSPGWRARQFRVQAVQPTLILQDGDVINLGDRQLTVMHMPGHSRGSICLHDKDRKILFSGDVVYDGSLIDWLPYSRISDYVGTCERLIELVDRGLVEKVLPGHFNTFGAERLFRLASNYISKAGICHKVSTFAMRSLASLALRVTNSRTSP
Experimental: (§1) MBLAC2 is a metalloenzyme predicted to harbor one or two Zn^2+ ions in its active site. […] In this assay, compounds of interest are incubated at increasing concentrations with a mixture of lysates of MV4–11 and SW620 cells. The compound-treated lysates are then mixed with bead-immobilized hydroxamic acid-containing compounds iA, iC, and iQ (immobilized Quisinostat), which pull down compound-binding proteins such as HDACs, MBLAC2, ISOC1/2, ALDH2, and GATD3A (Figure a) that can be identified and quantified by mass spectrometry (MS). Proteins targeted by the library compounds in a preincubation step are prevented from being pulled down by the immobilized probes, leading to a dose-dependent reduction in MS signal. Initially, 12 metal-chelating compounds were profiled at two concentrations (10 μM and 100 μM) (Figure S3).
(§2) Chemoproteomic competition assays
Sample preparation. For the MBLAC2 and HDAC inhibitor competition assay, the generation of affinity matrices, lysate generation, pulldown assay, and sample preparation were performed as described in […]
detail in REF1. […]
(§3) LC-MS/MS. The different sample types were measured with different LC-MS/MS settings. MBLAC2 2-dose competition assays were measured with the Lumos1 setup, MBLAC2 9-dose competition assays were measured with the Lumos2 setup, and kinobeads assays were measured with the Eclipse setup.
(§4) Peptides were analyzed via LC–MS/MS on a Dionex Ultimate3000 nano HPLC coupled to either one of two Orbitrap Fusion Lumos mass spectrometers, or to an Orbitrap Eclipse mass spectrometer, operated via the Thermo Scientific Xcalibur software.
(§5) In the all setups, peptides were loaded on a trap column (100 μm × 2 cm, packed in-house with Reprosil-Gold C18 ODS-3 5 μm resin, Dr. Maisch, Ammerbuch) and washed with 5 μL/min solvent A (0.1% formic acid in HPLC grade water) for 10 min. Peptides were then separated on an analytical column (75 μm × 40 cm, packed in-house with Reprosil-Gold C18 3μm resin, Dr. Maisch, Ammerbuch) using a 50 min gradient ranging from 4 to 32% solvent B (0.1% formic acid, 5% DMSO in acetonitrile) in solvent A (0.1% formic acid, 5% DMSO in HPLC grade water) at a flow rate of 300 nL/min.
(§6) The mass spectrometers were operated in data-dependent mode, automatically switching between MS1 and MS2 spectra. MS1 spectra were acquired over a mass-to-charge (m/z) range of 360–1300 m/z at a resolution of 60,000 (at m/z 200) in the Orbitrap using a maximum injection time of 50 ms and an automatic gain control (AGC) target value of 4e5.
(§7) In Lumos settings, up to 12 peptide precursors were isolated in (isolation width of 1.2 Th for Lumos1 and 1.7 for Lumos2, maximum injection time of 75 ms, AGC value of 1e5 for Lumos1 and 2e5 for Lumos2), fragmented by HCD using 30% normalized collision energy (NCE) and analyzed in the Orbitrap at a resolution of 15,000 (Lumos2) or 30,000 (Lumos1). The dynamic exclusion duration of fragmented precursor ions was set to 20 s (Lumos1) or 30 s (Lumos2). In Eclipse measurements, a cycle time of 2 s was chosen. Peptides were isolated in the quadrupole with an isolation offset of 1.2 (isolation width of 1.2 Th, maximum injection time of 54 ms, AGC target of 200%) and fragmented by HCD with an NCE of 30% and analyzed in the Orbitrap at a resolution of 30,000. The dynamic exclusion on the Eclipse was set to 20 s.
Data analysis. The data analysis of MBLAC2/HDAC inhibitor competition assays was performed as described in detail in REF1. LFQ intensity values were used for the calculation of relative residual binding to the affinity matrix. […]

HeLa cells = experiment: clathrin-mediated endocytosis of fluorescently labeled transferrin; type: cell-based; details: HeLa cells, 2 µM, 20 h
Experimental: Given that local GTP production by NME1 and NME2 is essential for fueling dynamin-driven endocytosis, we investigated the effect of KV-50-mediated NME1/2 inhibition on fluorescent transferrin (TF) uptake in cells. HeLa cells were treated with KV-50 or known endocytosis inhibitors (Pitstop-2 and Dynasore), and surface-bound and internalized fluorescent TF were quantified.

[1] = test system: cell proliferation or fitness; experiment: alamar blue cell metabolic activity assay with MBLAC2 inhibitors; type: cell-based; details: 72h, five concentrations
Description: Our earlier observation that MBLAC2 inactivation leads to the upregulation of extracellular vesicles (EVs), combined with evidence of MBLAC2’s association with late endosomes and membrane processes, , prompted us to hypothesize that MBLAC2 inactivation might impair endocytosis. To test this hypothesis, we measured clathrin-mediated endocytosis of fluorescently labeled transferrin (TF) in the presence and absence of MBLAC2 inhibitors. […] Thus, the precise biological roles of MBLAC2 remain elusive. However, we anticipate that the selective compounds identified in this study will serve as valuable tools for elucidating the cell biological functions of MBLAC2 in future research.
Fig. S6| Characterization of MBLAC2 inhibitors. a, 9-dose competition assay of MBLAC2 selective inhibitors KV-65 and KV-79. b, Impact of MBLAC2i on cell metabolic activity assessed in an alamar blue assay. Cells were treated in triplicates with five concentrations of MBLAC2i and a DMSO vehicle control for 72h. c, Clathrin-mediated endocytosis assay based on measurement of fluorescent transferrin uptake. Dynasore and Pitstop-2 serve as positive controls. HeLa cells were pre-incubated with 100 µM Dynasore, 2 µM KV65, or 2 µM KV79 for 20 h before the microscopy readout. 30 µM Pitstop-2 was added only for 15 min before readout. […]

[2] = test system: compound-binding proteins such as HDACs, MBLAC2, ISOC1/2, ALDH2, and GATD3A; experiment: chemoproteomic competition assay, proteome-wide target binding profile; parameters: species or system human; details: dose-dependent competition
Experimental: as §1, §2
Sample preparation. For the MBLAC2 and HDAC inhibitor competition assay, the generation of affinity matrices, lysate generation, pulldown assay, and sample preparation were performed as described in detail in REF1. For the kinobeads assay, the generation of affinity matrices, lysate generation, pulldown assay, and sample preparation were performed as described in detail in REF2.
as §3, §4, §5, §6
as §7, with “HCD with an NCE of 30% and analyzed in the Orbitrap at a resolution of 30,000. The dynamic exclusion on the Eclipse was set to 20 s.” left out

[3] = biological target: recombinant HINT1 (hHint1) (Homo sapiens, UniProt P49773); experiment: HINT1 enzyme activity assay (TrpA hydrolysis, fluorescence); type: biochemical; details: hHint1 0.002 µM, TrpA 0.5 µM, 25 °C
Description: While the biologically relevant substrates of HINT1 have not been clearly elucidated, the protein has been implicated in opioid receptor signaling, − regulation of the melanoma-associated transcription factor MITF, , and DNA damage repair. These functions position HINT1 as a potential pharmacological target for treating conditions such as opioid resistance or melanoma. The only reported HINT1-targeting pharmacophores are nucleoside-based nonhydrolyzable substrate analogs, such as the carbamate TrpGC (Figure a). , We evaluated the inhibitory potential of KV-24 and KV-30 in enzyme activity assays using recombinant HINT1. […] This discrepancy could be attributed to reduced affinity for the recombinant enzyme due to the absence of post-translational modifications (PTMs), cofactors, or interaction partners that enhance drug binding. Alternatively, it might result from substrate dilution in the lysate, whereas high substrate concentrations in the enzyme activity assay require the inhibitor to compete more effectively.
Mouse brain proteomics – LC-MS/MS. Proteome analysis of brain mouse tissue samples was performed on a micro-flow LC timsTOF HT setup described in detail in REF14. Liquid chromatography in micro-flow mode was performed on a Vanquish Neo UHPLC System (Thermo Fisher Scientific) at a flow rate of 50 µL/min. […] 10 µg of peptide mix was injected and analyzed using a 58 min gradient starting at 1% B up to 45% B (1 h method). […]
Mouse proteomics data analysis. The data files were analyzed with DIA-NN 1.8.1. […] The resulting protein group tables were further analyzed by Perseus 1.6.2.2. […]
CME of transferrin and confocal microscopy analyses.For transferrin uptake experiments HeLa cells were seeded on Matrigel-coated coverslips, and incubated with 0.1 % DMSO, or with 100 µM dynasore, 20 µM KV50, 2 µM KV65, or 2 µM KV79 in media containing 10% FCS at 37°C for 20 h. […] All inhibitor treatments were performed in duplicate, to enable quantification of surface levels of transferrin receptors, and to assess the capability of transferrin receptor endocytosis. […]

Toxoplasma gondii = test system: Toxoplasma gondii; parameters: method as in PMID 33360687, PMID 35483428, PMID 38431113, PMID 29414107; details: in human host cells; cited from earlier work

Sequence of recombinant HINT1 (hHint1) (P49773 whole entry): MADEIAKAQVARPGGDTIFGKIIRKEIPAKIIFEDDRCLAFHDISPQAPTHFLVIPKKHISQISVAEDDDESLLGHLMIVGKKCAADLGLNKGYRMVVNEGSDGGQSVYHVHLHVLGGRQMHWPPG

## O=C(NO)c1ccc(Cn2c(=O)n(CCc3ccccc3)c(=O)c3ccccc32)cc1 [Compound J22352]
MBLAC2
  MBLAC2 binding: potently bound MBLAC2

## O=C(NO)c1ccc(CN2c3ccccc3Sc3ccccc32)cc1 [KV-46]
MBLAC2
  EC50: 83 nM

## O=C(NO)c1ccc(CN2c3ccccc3S(=O)(=O)c3ccccc32)cc1 [KV-65]
MBLAC2
  EC50: 37 nM
HeLa cells
  TF uptake: not statistically significant
[1]
  concentration up to which cell proliferation or fitness not affected: > 10 µM

## O=C(NO)c1ccc(CN2c3ccccc3Sc3ccc(C(F)(F)F)cc32)cc1 [KV-79]
MBLAC2; abstract
  selectivity compared to HDACs: over 60 fold
MBLAC2
  EC50: 25 nM
HeLa cells
  TF uptake: not statistically significant
[1]
  concentration up to which cell proliferation or fitness not affected: > 10 µM

## O=C(CCCCCCC(=O)NO)NO [SBHA, suberoyl-bis-hydroxamic acid, reference compound]
[2]
  targets / off-targets bound: bind off-targets such as ISOC1/2, GATD3A, and ALDH2

## CN(CC(=O)N(Cc1ccc(C2CCCCC2)cc1)c1ccc(C(=O)NO)cc1)S(=O)(=O)c1c(F)c(F)c(F)c(F)c1F [SH5–07]
MBLAC2
  Kd: ~800 nM

## O=C(NO)c1ccc(CN2CCCc3cc(Cl)ccc32)cc1 [SW-100]
MBLAC2
  MBLAC2 binding: potently bound MBLAC2
  Kd: 75 nM

## Cn1c(CCCCCCC(=O)NO)nc2cc(N(CCCl)CCCl)ccc21 [Tinostamustine, reference compound]
[2]
  targets / off-targets bound: bind off-targets such as ISOC1/2, GATD3A, and ALDH2

## Nc1nc2c(ncn2[C@@H]2O[C@H](COC(=O)NCCc3c[nH]c4ccccc34)[C@@H](O)[C@H]2O)c(=O)[nH]1 [TrpGC, reference compound]
[3]
  IC50: 9100 nM

## CN1CCc2c(c3ccccc3n2Cc2ccc(C(=O)NO)cc2)C1 [Tubastatin A, reference compound]
Toxoplasma gondii
  inhibition of proliferation of protozoans: potently inhibit the proliferation

## ACY-1083
MBLAC2
  MBLAC2 binding: potently bound MBLAC2
